Here are results for 103 compounds from PubChem BioAssay AID1996.

Each structure is given as a SMILES string. ≈ marks a conversion by molar mass, not a printed value.

For this data set the following is noted: buffer; pH 7.4; 200.0 µM.
On to `CCOC(=O)c1sc(S(C)(=O)=O)c2c1CC(C)(C)C/C2=N/O`, for which the kinetic solubility (as a rule, solubility judged after dilution from a stock solution rather than from solid) was greater than 51.8 µg/mL.
Under `COC(=O)c1c(NC(C)=O)sc(C(=O)Nc2ccccc2F)c1C` stands less than 0.4 µg/mL; under `CC1(C)CC(=O)C2=C(C1)OC(N)=C(C#N)C2c1ccoc1` (stereo not drawn), greater than 42.6 µg/mL; under `Cc1ccc(NC(=O)NCCN2CCCCC2)cc1`, greater than 39.2 µg/mL.
For the compound `Cc1cccc(OCCn2c(=O)oc3ccc(C)cc32)c1`, the solubility (kinetic) turned out to be 3.8 µg/mL (≈ 13.4 µM).
In the case of `Cc1ccccc1OCC(=O)Nc1nc(-c2ccncc2)cs1`, the kinetic solubility is 4.9 µg/mL (≈ 15.1 µM).
Regarding `CCCCSCCCNC(=O)Nc1ccc(CC)cc1`, the solubility (kinetic) was 3.6 µg/mL (≈ 12.2 µM).
For the compound `O=C1Nc2ccccc2C1C(C[N+](=O)[O-])c1ccccn1` (stereo not drawn), the solubility (kinetic) was greater than 42.5 µg/mL.
Then `Cc1ccc(Nc2nc(N)c([N+](=O)[O-])c(NCc3ccccc3)n2)cc1`, with 0.3 µg/mL (≈ 0.856 µM).
Under `CNc1nc2c(C)cccn2c(=O)c1C=Nc1ccc(OC)cc1` stands 0.9 µg/mL (≈ 2.79 µM); under `OCCCNc1ncnc2oc(-c3ccccc3)c(-c3ccccc3)c12`, 17.5 µg/mL (≈ 50.7 µM); under `Cc1ccc[n+](CC(=O)Nc2ccc(Cl)c([N+](=O)[O-])c2)c1.[Cl-]`, greater than 51.3 µg/mL.
In turn, `CCCC(=O)Nc1sc(Cc2ccccc2)c(C)c1C(N)=O` displayed a kinetic solubility of 6.9 µg/mL (≈ 21.8 µM).
Under `Cc1nnc(NC(=O)CCNC(=O)c2ccccc2Cl)s1` stands greater than 48.7 µg/mL; under `COc1cc(CNc2nc3ccccc3s2)cc(OC)c1OC`, 48.4 µg/mL (≈ 146 µM).
Under `S=C(NCc1ccco1)N1CCN(c2cccc(Cl)c2)CC1` stands 12 µg/mL (≈ 35.7 µM).
As to `Cc1ccc(CNC(=O)c2cncc(Br)c2)cc1`, the solubility (kinetic) was 9.6 µg/mL (≈ 31.5 µM).
Then `CCC(C(=O)OCCOCCN(CC)CC)c1ccccc1` (stereo not drawn), with 41.1 µg/mL (≈ 134 µM).
Under `CCN1C(=O)c2ccccc2Sc2ccc(C(=O)NC(C)C)cc21` stands 47.9 µg/mL (≈ 141 µM); under `COc1ccc(Cl)cc1C(=O)Nc1ccc2c(c1)OCCO2`, 0.9 µg/mL (≈ 2.81 µM).
Under `CCN(CC)CCn1c(NC(=O)c2ccc(C)cc2)nc2ccccc21` stands 25.9 µg/mL (≈ 73.9 µM); under `CNS(=O)(=O)c1cccc(C(=O)OCC(=O)Nc2ccc3ccccc3c2)c1`, 2.8 µg/mL (≈ 7.03 µM).
As for `COc1ccc(Cl)cc1Nc1nc(-c2cccnc2)cs1`, the solubility (kinetic) is less than 0.2 µg/mL.
Then `CC(=O)c1c(COC(=O)c2ccccc2Cl)nc2ccccc2[n+]1[O-]`, with 15.9 µg/mL (≈ 44.6 µM).
Under `COc1ccccc1CNC(=O)CN1C(=O)NC(Cc2ccccc2)(c2ccccc2)C1=O` (stereo not drawn) stands 32.9 µg/mL (≈ 74.2 µM).
The compound `Cc1cc(OCCCCCn2ccnc2)cc(C)c1Cl.Cl` yielded a solubility (kinetic) of 23.1 µg/mL.
Then `CS(=O)(=O)c1ccc(NC(=O)CN2C(=O)C3CCCCC3C2=O)cc1` (stereo not drawn), with greater than 54.7 µg/mL.
The compound `O=C(c1ccco1)N1CCN(Cc2nc(Cc3ccccc3)no2)CC1` had a kinetic solubility of 37.7 µg/mL (≈ 107 µM).
Then `Cn1c(=O)c(=O)n(C)c2cc([N+](=O)[O-])c(N3CCOCC3)cc21`, with greater than 48 µg/mL; and `CC(NC(=O)OCc1ccccc1)c1ccccc1` (stereo not drawn), with greater than 38.3 µg/mL.
Consider `CC(C)CCSc1nc2ccccc2[nH]1`, for which the kinetic solubility was 10.7 µg/mL (≈ 48.6 µM).
The compound `COc1cccc2cc(/C(=N/O)c3ccc(Br)cc3)oc12` gave a kinetic solubility of less than 0.7 µg/mL.
`O=S(=O)(c1ccccc1F)N1CCc2ccccc2C1` displayed a kinetic solubility of less than 0.6 µg/mL.
Then `Cc1ccc(C(C)C)c(OCC#CCN2CCCC2)c1.O=C(O)C(=O)O`, with 25.7 µg/mL; and `CCOC(=O)c1cccc(NC(=O)c2ccccc2C)c1`, with 33.1 µg/mL (≈ 117 µM).
Consider `CCCn1c(O)c(N=N)c2ccccc21`, for which the solubility (kinetic) was greater than 30.5 µg/mL.
Under `N#Cc1nc(-c2ccc(F)cc2)oc1N1CCC(C(N)=O)CC1` stands 12.4 µg/mL (≈ 39.5 µM).
Then `CCc1ccc(NC(=O)N2CCCCCC2)cc1`, with 31.9 µg/mL (≈ 129 µM).
For the compound `CCC(C(=O)Nc1ccc(Cl)cc1)N1CCCC1=O` (stereo not drawn), the kinetic solubility is 41.3 µg/mL (≈ 147 µM).
Then `COc1ccc(NC(=O)/C=C/C(=O)O)c([N+](=O)[O-])c1`, with greater than 39.9 µg/mL; and `N#Cc1ccc(COC(=O)c2cnc3ccccc3n2)cc1`, with 6.1 µg/mL (≈ 21.1 µM).
`Cc1ccc(-c2cnco2)cc1` gave a solubility (kinetic) of less than 0.3 µg/mL.
`COCCNc1nc(N)c([N+](=O)[O-])c(NCc2ccccc2)n1` yielded a solubility (kinetic) of 4.9 µg/mL (≈ 15.4 µM).
Under `O=C(CC(c1ccccc1)c1cc(Cl)ccc1O)N1CCCC1` (stereo not drawn) stands greater than 49.5 µg/mL; under `O=C(NC1CCS(=O)(=O)C1)c1sc2ccccc2c1Cl` (stereo not drawn), 12.2 µg/mL (≈ 37 µM); under `O=C(Nc1ccc2c(c1)OCCO2)c1cccc(Cl)c1Cl`, 35.5 µg/mL (≈ 110 µM).
Compound `CCOC(Cn1cc(C)c(=O)[nH]c1=O)OCC` gave a kinetic solubility greater than 36.3 µg/mL.
`CC(=O)c1ccc(NC(=O)COC(=O)C2C3CC4OC(=O)C2C4C3)cc1` (stereo not drawn) registered a kinetic solubility greater than 53.6 µg/mL.
`Cc1ccc(CN(C(=O)c2ccco2)C2CCS(=O)(=O)C2)cc1` (stereo not drawn) registered a solubility (kinetic) greater than 50 µg/mL.
For the compound `COc1cc(C(=S)N2CCOCC2)cc(OC)c1OC`, the solubility (kinetic) is greater than 44.6 µg/mL.
Under `COC(=O)Cc1ccc(NC(=S)NC2CC2)cc1` stands greater than 39.7 µg/mL.
For the compound `CCOc1ccc(NC(=O)[C@@H](NC(=O)c2ccco2)C(C)C)cc1`, the solubility (kinetic) is greater than 49.6 µg/mL.
Under `Cc1nn(-c2ccccc2)c(Cl)c1C(=O)N1CCN(C)CC1` stands greater than 47.8 µg/mL.
Compound `CCOC(=O)c1c(C=O)c2ccccc2n1CC` displayed a solubility (kinetic) of 3.1 µg/mL (≈ 12.6 µM).
Then `CSc1ncccc1C(=O)NCC(c1ccco1)N1CCCCC1` (stereo not drawn), with greater than 51.8 µg/mL.
`Cc1cc(C)c2cc(C(=O)Nc3ccc(C)c(F)c3)[nH]c2c1` had a solubility (kinetic) of 0.8 µg/mL (≈ 2.7 µM).
Then `CCOP(=O)(c1ccc(N(C)C)cc1)C(O)c1ccc(C)cc1` (stereo not drawn), with 46 µg/mL (≈ 138 µM).
Then `CC(=O)Nc1ccc(NC(=O)c2c([N+](=O)[O-])cnn2C)cc1`, with greater than 45.5 µg/mL; and `O=C(Nc1ccc(Cl)cc1)c1csc(Cc2ccccc2)n1`, with 1.1 µg/mL (≈ 3.35 µM); and `Br.COc1ccc(-c2nc3n(c2C)CCC3)cc1`, with greater than 46.4 µg/mL.
Under `CNc1nc(C23CC4CC(CC(C4)C2)C3)cs1` stands 13 µg/mL (≈ 52.3 µM).
For the compound `COc1ccc(Nc2ncc(C#N)c(N)n2)c(OC)c1`, the kinetic solubility came to 6.6 µg/mL (≈ 24.3 µM).
Then `CCN(C(=O)COC(=O)c1nccnc1N)c1cccc2ccccc12`, with greater than 52.6 µg/mL; and `Cc1sc(N)nc1-c1c(C)n(C)c2ccccc12`, with 37.6 µg/mL (≈ 146 µM).
Under `CCc1noc(C)c1C(=O)OCC(=O)Nc1ccc2c(c1)OCO2` stands 9.5 µg/mL (≈ 28.6 µM); under `CNc1nc(N)c([N+](=O)[O-])c(N2CCCCCC2)n1`, 39.5 µg/mL (≈ 148 µM); under `O=C(Nc1cccc(S(=O)(=O)N2CCCCC2)c1)c1cc(=O)[nH]c2ccccc12`, 9.2 µg/mL (≈ 22.4 µM).
Then `Cc1ccc(S(=O)(=O)N(CC(=O)N2CCOCC2)c2ccc(C(C)C)cc2)cc1`, with 4.6 µg/mL (≈ 11 µM); and `O=C(COC(=O)c1ccccc1Br)NC(=O)NCc1ccccc1`, with 5.1 µg/mL (≈ 13 µM).
The compound `CC(=O)c1sc(NC(=O)c2ccc(Br)o2)nc1C` yielded a solubility (kinetic) of 12.8 µg/mL (≈ 38.9 µM).
Under `Cc1nc(NC(=S)NC(=O)c2ccccc2)sc1C` stands 0.3 µg/mL (≈ 1.03 µM); under `CCC(C(=O)NCCc1ccc(S(N)(=O)=O)cc1)c1ccccc1` (stereo not drawn), greater than 52 µg/mL.
On to `Cc1ccc(CCNC(=O)CSCc2ccc(F)cc2)cc1`, for which the kinetic solubility is 13.5 µg/mL (≈ 42.5 µM).
Under `COc1ccc(C(CC(=O)N2CCCCC2)C(C)C)cc1` (stereo not drawn) stands greater than 43.4 µg/mL; under `COc1cc(C(=O)OCC(=O)NCCCc2ccccc2)ccc1OCC(C)C`, 1.2 µg/mL (≈ 3 µM).
Compound `CC1=C([N+](=O)[O-])C(c2ccc3c(c2)OCO3)N(C)C(=O)N1C` (stereo not drawn) had a kinetic solubility of 36.4 µg/mL (≈ 119 µM).
Consider `Cc1ccc(C(=O)Nn2cnc3ccccc3c2=O)cc1C`, for which the solubility (kinetic) was greater than 44 µg/mL.
`COc1cccc(NC(=O)CN2C(=O)NC(Cc3c[nH]c4ccccc34)C2=O)c1` (stereo not drawn): the kinetic solubility was found to be 22 µg/mL (≈ 56.1 µM).
`Br.Cc1ccnc(Nc2nc(-c3ccccc3)cs2)c1` showed a kinetic solubility of 0.4 µg/mL.
Consider `Cc1cccc(C)c1NC(=S)N(CCN(C)C)C(C)c1ccccn1` (stereo not drawn), for which the solubility (kinetic) was greater than 53.5 µg/mL.
Take `CC(=O)Nc1ccc(NC(=O)COC(=O)c2ccccn2)cc1`: the solubility (kinetic) is greater than 47 µg/mL.
Under `Cc1ccccc1NC(=O)c1ccc2c(c1)CCN2S(C)(=O)=O` stands 6.3 µg/mL (≈ 19.1 µM); under `O=C(O)C(=O)O.c1ccc2cc(OCCCn3ccnc3)ccc2c1`, greater than 51.4 µg/mL.
Then `CC(=O)Nc1ccc(NC(=O)N(c2ccccc2)c2ccccc2)cc1`, with 6.4 µg/mL (≈ 18.5 µM); and `O=C(NC(=S)Nc1ccccc1O)c1cncc(Br)c1`, with 9.4 µg/mL (≈ 26.7 µM).
Then `CN(C1CCCCC1)S(=O)(=O)c1ccc(=S)[nH]c1`, with 22.8 µg/mL (≈ 79.6 µM); and `CCc1nc2ccccc2c(C(=O)OCc2nc3ccccc3c(=O)[nH]2)c1C`, with 14.5 µg/mL (≈ 38.8 µM); and `CCOc1cc(N2CCOCC2)c(OCC)cc1NC(=O)CSc1nnc(N)s1`, with greater than 65.9 µg/mL.
In turn, `COc1ccccc1NS(=O)(=O)c1ccc(C(=O)N2CCCCCC2)cc1` came in with a solubility (kinetic) greater than 58.3 µg/mL.
Under `Cc1c(C(=O)N2CCC2)oc2ccc(Cl)cc12` stands 15.6 µg/mL (≈ 62.5 µM); under `CCOc1cccc(/C=C/c2ccc3cccc(O)c3n2)c1O`, less than 0.7 µg/mL.
Under `CCOc1ccc(C(=O)CCC(=O)Nc2ncccc2O)cc1` stands greater than 47.2 µg/mL; under `CCN(CC)c1ccc(NC(=O)C2CCCC2)cc1`, 35.4 µg/mL (≈ 136 µM); under `COC(=O)C1Cc2c([nH]c3ccccc23)C(C(C)C)N1` (stereo not drawn), 33.4 µg/mL (≈ 123 µM).
Then `Cc1cc(C(=O)NC(C)CCc2ccccc2)ccc1[N+](=O)[O-]` (stereo not drawn), with 4 µg/mL (≈ 12.8 µM).
On to `N/C(=N\OC(=O)Nc1cccc(C(F)(F)F)c1)c1ccno1`, for which the solubility (kinetic) worked out at 18.7 µg/mL (≈ 59.5 µM).
`CCCCOC(=O)C1=C(C)NC(=O)NC1c1ccc(OC)cc1` (stereo not drawn) came in with a kinetic solubility of 14.6 µg/mL (≈ 45.9 µM).
Under `NC(=O)C1CC(=O)N(c2ccc(OCc3ccc([N+](=O)[O-])cc3)cc2)C1` (stereo not drawn) stands 20.4 µg/mL (≈ 57.4 µM); under `COC(=O)c1c(Sc2ccccc2)c2ccccc2n1C`, less than 0.6 µg/mL.
As for `COc1ccc(NC(=O)CN2CCN(c3ccccc3C)CC2)cc1`, the kinetic solubility amounted to 35.5 µg/mL (≈ 105 µM).
Under `COc1ccc(CN2CC[C@@H](N3CCOCC3)[C@H](O)C2)cc1F` stands 43.3 µg/mL (≈ 133 µM).
Compound `CC1CCc2sc(C(=O)NCc3ccccn3)cc2C1` (stereo not drawn) gave a kinetic solubility of 13 µg/mL (≈ 45.4 µM).
Then `O=c1[nH]snc1N1CCOCC1`, with greater than 28.1 µg/mL.
